{"source": "paper PMC11882969", "about": "(Nature Communications, 2025)", "type_in_all_cases": "cell-based", "key": {"[1]": {"target": "panel of 320 non-olfactory GPCRs (Homo sapiens, UniProt Q8WXD0)"}, "[2]": {"target": "panel of 320 non-olfactory GPCRs (Homo sapiens, UniProt P07550)"}, "[3]": {"target": "panel of 320 non-olfactory GPCRs (Homo sapiens, UniProt Q99500)", "sequence (Q99500 whole entry)": "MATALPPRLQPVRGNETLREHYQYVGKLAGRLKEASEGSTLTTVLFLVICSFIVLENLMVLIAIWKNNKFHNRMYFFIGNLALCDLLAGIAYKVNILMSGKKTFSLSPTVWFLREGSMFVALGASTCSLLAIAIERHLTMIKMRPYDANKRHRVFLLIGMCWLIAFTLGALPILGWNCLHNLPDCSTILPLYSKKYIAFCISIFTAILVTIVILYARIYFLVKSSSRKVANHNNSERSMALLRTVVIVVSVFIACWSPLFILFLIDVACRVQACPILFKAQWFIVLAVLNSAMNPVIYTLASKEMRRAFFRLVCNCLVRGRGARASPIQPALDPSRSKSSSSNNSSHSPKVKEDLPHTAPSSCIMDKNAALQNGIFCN"}, "[4]": {"target": "panel of 320 non-olfactory GPCRs (Homo sapiens, UniProt Q96CH1)"}, "[5]": {"target": "panel of 320 non-olfactory GPCRs (Homo sapiens, UniProt O95665)"}, "[6]": {"target": "panel of 320 non-olfactory GPCRs (Homo sapiens, UniProt O14843)", "sequence (O14843 whole entry)": "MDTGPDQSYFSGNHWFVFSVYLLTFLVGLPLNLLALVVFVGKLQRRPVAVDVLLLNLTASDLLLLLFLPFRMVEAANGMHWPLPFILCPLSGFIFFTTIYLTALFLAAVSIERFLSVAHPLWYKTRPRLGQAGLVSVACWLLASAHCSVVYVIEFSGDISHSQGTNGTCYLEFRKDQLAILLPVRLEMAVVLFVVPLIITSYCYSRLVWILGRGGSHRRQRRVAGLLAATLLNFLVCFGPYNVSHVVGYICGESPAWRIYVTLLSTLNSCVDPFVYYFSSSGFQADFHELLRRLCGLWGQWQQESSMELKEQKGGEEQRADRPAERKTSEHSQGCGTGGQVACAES"}, "[7]": {"target": "panel of 320 non-olfactory GPCRs (Homo sapiens, UniProt P18825)"}, "[8]": {"target": "panel of 320 non-olfactory GPCRs (Homo sapiens, UniProt Q8IZ08)"}, "[9]": {"target": "panel of 320 non-olfactory GPCRs (Homo sapiens, UniProt Q8TDV0)"}, "[10]": {"target": "panel of 320 non-olfactory GPCRs (Homo sapiens, UniProt P22888)"}, "[11]": {"target": "panel of 320 non-olfactory GPCRs (Homo sapiens, UniProt P51681)"}, "[12]": {"target": "panel of 320 non-olfactory GPCRs (Homo sapiens, UniProt P50406)", "sequence (P50406 whole entry)": "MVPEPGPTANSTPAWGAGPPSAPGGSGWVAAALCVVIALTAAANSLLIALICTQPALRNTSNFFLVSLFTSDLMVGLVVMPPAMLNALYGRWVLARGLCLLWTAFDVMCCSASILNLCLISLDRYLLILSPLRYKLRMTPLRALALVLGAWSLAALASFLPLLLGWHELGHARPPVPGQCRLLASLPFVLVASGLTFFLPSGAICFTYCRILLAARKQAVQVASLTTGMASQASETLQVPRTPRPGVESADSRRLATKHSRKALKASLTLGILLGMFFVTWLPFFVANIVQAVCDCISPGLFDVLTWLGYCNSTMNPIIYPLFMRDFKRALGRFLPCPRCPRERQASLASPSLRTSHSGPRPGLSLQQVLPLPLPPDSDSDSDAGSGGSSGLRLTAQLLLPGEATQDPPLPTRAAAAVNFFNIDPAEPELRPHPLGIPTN"}, "[13]": {"target": "panel of 320 non-olfactory GPCRs (Homo sapiens, UniProt O00421)", "sequence (O00421 whole entry)": "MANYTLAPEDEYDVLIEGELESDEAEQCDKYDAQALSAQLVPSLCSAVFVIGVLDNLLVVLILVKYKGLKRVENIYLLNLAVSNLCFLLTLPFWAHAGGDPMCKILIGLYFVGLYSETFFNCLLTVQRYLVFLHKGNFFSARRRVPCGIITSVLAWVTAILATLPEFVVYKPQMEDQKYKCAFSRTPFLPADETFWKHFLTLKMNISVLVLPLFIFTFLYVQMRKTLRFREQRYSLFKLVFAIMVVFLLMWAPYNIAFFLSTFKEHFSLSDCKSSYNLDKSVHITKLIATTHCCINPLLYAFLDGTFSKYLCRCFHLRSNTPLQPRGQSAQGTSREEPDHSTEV"}, "[14]": {"target": "panel of 320 non-olfactory GPCRs (Homo sapiens, UniProt P32238)"}, "[15]": {"target": "panel of 320 non-olfactory GPCRs (Homo sapiens, UniProt Q8IZF5)"}, "[16]": {"target": "panel of 320 non-olfactory GPCRs (Homo sapiens, UniProt P41587)"}, "[17]": {"target": "panel of 320 non-olfactory GPCRs (Homo sapiens, UniProt Q9HB89)"}, "[18]": {"target": "panel of 320 non-olfactory GPCRs (Homo sapiens, UniProt Q9Y271)"}, "[19]": {"target": "panel of 320 non-olfactory GPCRs (Homo sapiens, UniProt P30559)", "sequence (P30559 whole entry)": "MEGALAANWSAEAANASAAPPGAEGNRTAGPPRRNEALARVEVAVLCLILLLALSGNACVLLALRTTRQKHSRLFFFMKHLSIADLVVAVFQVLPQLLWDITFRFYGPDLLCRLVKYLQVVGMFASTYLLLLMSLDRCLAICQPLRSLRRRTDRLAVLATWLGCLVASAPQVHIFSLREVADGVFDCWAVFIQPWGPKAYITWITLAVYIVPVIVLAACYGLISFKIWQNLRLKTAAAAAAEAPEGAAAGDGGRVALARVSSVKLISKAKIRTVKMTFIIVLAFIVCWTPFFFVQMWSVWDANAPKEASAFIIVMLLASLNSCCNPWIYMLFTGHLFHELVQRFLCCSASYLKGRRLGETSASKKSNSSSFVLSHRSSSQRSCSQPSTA"}, "[20]": {"target": "panel of 320 non-olfactory GPCRs (Homo sapiens, UniProt Q13639)"}, "[21]": {"target": "panel of 320 non-olfactory GPCRs (Homo sapiens, UniProt Q9NZH0)", "sequence (Q9NZH0 29-403)": "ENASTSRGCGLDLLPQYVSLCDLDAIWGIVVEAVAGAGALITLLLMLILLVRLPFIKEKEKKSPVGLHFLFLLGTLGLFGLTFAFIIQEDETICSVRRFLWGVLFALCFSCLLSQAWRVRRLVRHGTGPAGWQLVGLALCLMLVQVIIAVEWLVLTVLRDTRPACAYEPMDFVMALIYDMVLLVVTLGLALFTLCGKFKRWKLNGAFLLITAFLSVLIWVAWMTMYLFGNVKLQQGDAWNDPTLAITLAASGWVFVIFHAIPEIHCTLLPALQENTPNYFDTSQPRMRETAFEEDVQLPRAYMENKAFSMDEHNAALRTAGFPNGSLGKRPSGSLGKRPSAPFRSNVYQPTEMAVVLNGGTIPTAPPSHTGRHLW"}, "[22]": {"target": "panel of 320 non-olfactory GPCRs (Homo sapiens, UniProt Q9Y2T5)", "sequence (Q9Y2T5 whole entry)": "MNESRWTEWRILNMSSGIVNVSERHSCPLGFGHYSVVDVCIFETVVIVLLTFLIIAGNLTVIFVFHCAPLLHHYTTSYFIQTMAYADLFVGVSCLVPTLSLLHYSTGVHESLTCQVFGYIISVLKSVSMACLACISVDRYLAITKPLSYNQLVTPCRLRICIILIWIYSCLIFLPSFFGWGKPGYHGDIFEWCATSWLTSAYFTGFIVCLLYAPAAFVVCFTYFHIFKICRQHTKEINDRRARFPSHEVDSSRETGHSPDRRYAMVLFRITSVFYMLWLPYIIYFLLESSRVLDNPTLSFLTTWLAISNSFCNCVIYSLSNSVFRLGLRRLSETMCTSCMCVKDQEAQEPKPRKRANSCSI"}, "[23]": {"target": "panel of 320 non-olfactory GPCRs (Homo sapiens, UniProt P18089)", "sequence (P18089 whole entry)": "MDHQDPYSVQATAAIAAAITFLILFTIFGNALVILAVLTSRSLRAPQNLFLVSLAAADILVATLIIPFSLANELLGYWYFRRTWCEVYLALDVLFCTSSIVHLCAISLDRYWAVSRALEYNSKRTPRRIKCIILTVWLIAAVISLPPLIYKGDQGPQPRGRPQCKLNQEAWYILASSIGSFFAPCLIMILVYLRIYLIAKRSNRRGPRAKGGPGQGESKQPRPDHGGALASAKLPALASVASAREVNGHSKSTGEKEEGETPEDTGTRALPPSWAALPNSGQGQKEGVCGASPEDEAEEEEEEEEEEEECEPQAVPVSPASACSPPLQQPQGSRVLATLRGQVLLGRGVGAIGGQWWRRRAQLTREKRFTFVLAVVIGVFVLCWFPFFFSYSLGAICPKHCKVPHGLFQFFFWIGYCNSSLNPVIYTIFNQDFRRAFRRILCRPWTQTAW"}, "[24]": {"target": "panel of 320 non-olfactory GPCRs (Homo sapiens, UniProt Q9Y5N1)", "sequence (Q9Y5N1 whole entry)": "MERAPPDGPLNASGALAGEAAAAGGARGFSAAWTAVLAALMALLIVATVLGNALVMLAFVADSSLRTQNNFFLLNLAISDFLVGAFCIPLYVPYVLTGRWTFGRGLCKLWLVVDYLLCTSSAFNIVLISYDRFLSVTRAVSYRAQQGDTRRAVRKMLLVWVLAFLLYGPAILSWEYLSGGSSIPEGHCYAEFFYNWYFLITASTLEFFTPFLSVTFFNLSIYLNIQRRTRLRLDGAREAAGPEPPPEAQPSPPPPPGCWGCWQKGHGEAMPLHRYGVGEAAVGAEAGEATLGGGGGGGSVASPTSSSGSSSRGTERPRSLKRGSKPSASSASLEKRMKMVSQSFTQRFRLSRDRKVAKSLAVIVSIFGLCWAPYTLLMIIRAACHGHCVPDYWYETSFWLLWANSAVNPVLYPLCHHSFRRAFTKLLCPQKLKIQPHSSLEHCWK"}, "[25]": {"target": "panel of 320 non-olfactory GPCRs (Homo sapiens, UniProt Q8IWK6)"}, "[26]": {"target": "panel of 320 non-olfactory GPCRs (Homo sapiens, UniProt P25024)"}, "[27]": {"target": "panel of 320 non-olfactory GPCRs (Homo sapiens, UniProt Q9H228)", "sequence (Q9H228 whole entry)": "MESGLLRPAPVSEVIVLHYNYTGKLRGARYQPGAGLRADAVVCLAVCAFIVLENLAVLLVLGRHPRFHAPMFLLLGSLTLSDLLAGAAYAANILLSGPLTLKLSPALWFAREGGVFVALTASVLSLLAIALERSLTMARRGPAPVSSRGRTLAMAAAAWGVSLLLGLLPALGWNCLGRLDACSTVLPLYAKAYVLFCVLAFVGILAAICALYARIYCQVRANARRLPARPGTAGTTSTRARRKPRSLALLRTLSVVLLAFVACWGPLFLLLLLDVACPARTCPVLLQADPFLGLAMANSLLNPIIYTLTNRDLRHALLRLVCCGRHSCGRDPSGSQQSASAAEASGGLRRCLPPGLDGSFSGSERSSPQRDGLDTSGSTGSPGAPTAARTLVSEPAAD"}, "[28]": {"target": "panel of 320 non-olfactory GPCRs (Homo sapiens, UniProt Q9H1Y3)"}, "[29]": {"target": "panel of 320 non-olfactory GPCRs (Homo sapiens, UniProt Q14330)"}, "[30]": {"target": "panel of 320 non-olfactory GPCRs (Homo sapiens, UniProt Q7Z602)", "sequence (Q7Z602 whole entry)": "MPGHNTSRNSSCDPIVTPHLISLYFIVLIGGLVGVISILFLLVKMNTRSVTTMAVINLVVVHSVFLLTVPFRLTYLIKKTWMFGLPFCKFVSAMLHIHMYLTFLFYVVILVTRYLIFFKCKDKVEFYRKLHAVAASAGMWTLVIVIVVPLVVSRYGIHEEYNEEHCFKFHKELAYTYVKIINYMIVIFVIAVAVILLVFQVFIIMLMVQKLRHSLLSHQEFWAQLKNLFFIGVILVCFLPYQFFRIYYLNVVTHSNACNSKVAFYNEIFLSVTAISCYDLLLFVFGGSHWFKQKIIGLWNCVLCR"}, "[31]": {"target": "panel of 320 non-olfactory GPCRs (Homo sapiens, UniProt Q96PE1)"}, "[32]": {"target": "panel of 320 non-olfactory GPCRs (Homo sapiens, UniProt Q9NS67)"}, "[33]": {"target": "panel of 320 non-olfactory GPCRs (Homo sapiens, UniProt Q96LA9)", "sequence (Q96LA9 whole entry)": "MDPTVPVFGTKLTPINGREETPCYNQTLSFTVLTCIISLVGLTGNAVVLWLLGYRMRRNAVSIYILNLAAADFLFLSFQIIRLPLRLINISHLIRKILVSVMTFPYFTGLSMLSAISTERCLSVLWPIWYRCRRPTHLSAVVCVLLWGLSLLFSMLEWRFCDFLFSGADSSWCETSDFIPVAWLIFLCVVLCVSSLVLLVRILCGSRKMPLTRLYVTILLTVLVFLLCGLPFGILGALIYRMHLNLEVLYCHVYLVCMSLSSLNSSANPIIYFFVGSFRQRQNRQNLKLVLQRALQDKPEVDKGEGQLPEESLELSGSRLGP"}, "[34]": {"target": "panel of 320 non-olfactory GPCRs (Homo sapiens, UniProt P21731)"}, "[35]": {"target": "panel of 320 non-olfactory GPCRs (Homo sapiens, UniProt O95977)"}, "[36]": {"target": "panel of 320 non-olfactory GPCRs (Homo sapiens, UniProt Q96RJ0)", "sequence (Q96RJ0 whole entry)": "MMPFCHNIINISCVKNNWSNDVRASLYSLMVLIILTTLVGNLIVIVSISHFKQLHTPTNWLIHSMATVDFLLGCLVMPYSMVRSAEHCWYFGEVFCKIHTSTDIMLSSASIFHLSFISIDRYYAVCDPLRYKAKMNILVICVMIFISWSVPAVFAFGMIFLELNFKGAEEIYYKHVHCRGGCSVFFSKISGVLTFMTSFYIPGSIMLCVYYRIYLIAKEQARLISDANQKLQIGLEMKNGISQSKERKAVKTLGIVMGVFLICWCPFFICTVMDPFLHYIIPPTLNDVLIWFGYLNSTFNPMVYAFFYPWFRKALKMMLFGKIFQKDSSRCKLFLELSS"}, "[37]": {"target": "panel of 320 non-olfactory GPCRs (Homo sapiens, UniProt O60883)"}}, "note": "Values joined by “and” are separate entries in the source; they are usually repeats but may differ in a detail not shown here. Identical values can stand only once. Note: test concentration or dose not given here."}
{"smiles": "COC(=O)[C@@](C)(NC(=O)c1cc(C)n(-c2cccc(C(F)(F)F)c2)n1)c1cccs1", "note": "[‘1350]", "values": [{"measurement": "Fold of Basal RLU", "setting": "[1]", "result": "1.3 and 0.9 and 1"}, {"measurement": "Fold of Basal RLU", "setting": "[2]", "result": 0.7}, {"measurement": "Fold of Basal RLU", "setting": "[3]", "result": "0.4 and 0.5 and 0.8"}, {"measurement": "Fold of Basal RLU", "setting": "[4]", "result": "0.6 and 0.7 and 0.8"}, {"measurement": "Fold of Basal RLU", "setting": "[5]", "result": "1.2 and 1 and 0.7 and 0.8"}, {"measurement": "Fold of Basal RLU", "setting": "[6]", "result": "0.6 and 0.8 and 1.1"}, {"measurement": "Fold of Basal RLU", "setting": "[7]", "result": "0.7 and 1.2 and 0.6"}, {"measurement": "Fold of Basal RLU", "setting": "[8]", "result": "1.2 and 0.9 and 1.6"}, {"measurement": "Fold of Basal RLU", "setting": "[9]", "result": "0.6 and 0.8 and 1.1"}, {"measurement": "Fold of Basal RLU", "setting": "[10]", "result": "0.9 and 1 and 1.1"}, {"measurement": "Fold of Basal RLU", "setting": "[11]", "result": "0.9 and 0.6 and 1.1 and 0.7"}, {"measurement": "Fold of Basal RLU", "setting": "[12]", "result": "1.2 and 1 and 1.1"}, {"measurement": "Fold of Basal RLU", "setting": "[13]", "result": "1.8 and 1.2 and 1 and 0.9"}, {"measurement": "Fold of Basal RLU", "setting": "[14]", "result": "1.4 and 0.9 and 1.1 and 1.7"}, {"measurement": "Fold of Basal RLU", "setting": "[15]", "result": "1.3 and 0.8 and 1.2"}, {"measurement": "Fold of Basal RLU", "setting": "[16]", "result": "0.9 and 1 and 0.7 and 1.3"}]}
{"smiles": "Cc1cc(C(=O)NC(C)(c2ccco2)c2ccco2)nn1-c1cccc(C(F)(F)F)c1", "note": "[‘4936]", "values": [{"measurement": "Fold of Basal RLU", "setting": "[17]", "result": "0.9 and 1.5"}, {"measurement": "Fold of Basal RLU", "setting": "[18]", "result": "1.1 and 0.9"}, {"measurement": "Fold of Basal RLU", "setting": "[19]", "result": "0.9 and 0.8 and 1"}, {"measurement": "Fold of Basal RLU", "setting": "[20]", "result": "1 fold and 1.6 fold and 0.9 fold"}, {"measurement": "Fold of Basal RLU", "setting": "[21]", "result": "0.7 and 0.6 and 0.8"}, {"measurement": "Fold of Basal RLU", "setting": "[22]", "result": "1.8 fold and 1.9 fold and 2.1 fold"}, {"measurement": "Fold of Basal RLU", "setting": "[23]", "result": "0.9 and 1.2 and 1.6 and 1"}, {"measurement": "Fold of Basal RLU", "setting": "[24]", "result": "1 and 0.5 and 0.6"}, {"measurement": "Fold of Basal RLU", "setting": "[25]", "result": "0.7 fold and 1 fold"}, {"measurement": "Fold of Basal RLU", "setting": "[26]", "result": "0.9 fold and 1.4 fold and 1.3 fold"}, {"measurement": "Fold of Basal RLU", "setting": "[27]", "result": "1.2 and 1.9 and 1.3"}, {"measurement": "Fold of Basal RLU", "setting": "[28]", "result": "0.4 and 0.5"}, {"measurement": "Fold of Basal RLU", "setting": "[29]", "result": "1.1 fold and 1.3 fold and 1.6 fold and 1.7 fold"}, {"measurement": "Fold of Basal RLU", "setting": "[30]", "result": "1.2 fold and 1.4 fold and 0.8 fold"}, {"measurement": "Fold of Basal RLU", "setting": "[31]", "result": "0.6 fold and 0.5 fold and 0.9 fold and 1 fold"}, {"measurement": "Fold of Basal RLU", "setting": "[32]", "result": "0.5 and 0.7 and 0.6"}, {"measurement": "Fold of Basal RLU", "setting": "[33]", "result": "0.6 and 0.8 and 1.1"}, {"measurement": "Fold of Basal RLU", "setting": "[34]", "result": "0.7 and 1.2 and 0.8"}, {"measurement": "Fold of Basal RLU", "setting": "[35]", "result": "0.7 fold and 0.5 fold"}, {"measurement": "Fold of Basal RLU", "setting": "[36]", "result": "1 fold and 1.1 fold and 0.9 fold"}, {"measurement": "Fold of Basal RLU", "setting": "[37]", "result": "0.5 fold and 0.9 fold and 0.6 fold"}]}
